Each block holds one molecule with its values, some of them ahead of it.
Key:
JAK1 and JAK2 = test: JAK activity in CHO-AT1a cells (phosphotyrosine immunoprecipitation, JAK1/JAK2 immunoblot); type: cell-based, Chinese hamster; conditions: 12-HETE 10^−7M, 10 hours
Protocol: It has further been discovered that 12-HETE induces stimulation of JAK activity. CHO-AT1a cells were treated with 12-HETE (10^−7M) for 10 hours, immunoprecipitated with a phosphotyrosine antibody and immunoblotted using specific JAK1 and JAK2 antibodies.

ERK = ERK activity in CHO-AT1a cells; type: cell-based, Chinese hamster; conditions: 12-HETE 10^−7M, peaks at 5 minutes and 3-4.5 hours
Protocol: ERK activity was evaluated by the substrate-SDS-polyacrylamide gel method described in Anal. Biochem., 183:139-143 (1989). Confluent cells in […] were made quiescent in serum-free medium and then treated with agonists for various time periods. The cells were then lysed in lysis buffer (1% NP40, 1% sodium deoxycholate, 0.1% SDS, 100 mM NaCl, 50 mM Tris, 10 mM EDTA, 1 mM EGTA, aprotinin, […], 0.1 mM PMSF and 1 mM sodium orthovanadate, pH 7.4). Lysates were centrifuged to pellet nuclei and the cell extracts ([…]) were subjected to electrophoresis on SDS-polyacrylamide gels (10%) containing myelin basic protein (0.5 mg/ml) as an ERK substrate. The SDS was then washed, followed by denaturation, renaturation and protein phosphorylation on the gel with [^32P] ATP.
(§1) It has been discovered that the administration of AII results in biphasic activation of MAP kinase (all of the MAP kinase experiments were conducted in CHO-AT1a cells—AII receptor AT1a cDNA transfected Chinese hamster ovary cells).

[1] = system: VEGF protein in MCF-7 cells; test: VEGF protein expression in breast cancer cells (immunoblot); type: cell-based, human
Protocol: FIG. 8 illustrates the dose-dependent effect of platelet-derived growth factor (PDGF) on vascular endothelial growth factor (VEGF) protein (42 kD) expression in MCF-7 breast cancer cells. Nearly confluent MCF-7 cells were serum starved for 24 hours by placing in DME medium+0.4% FCS and 0.2% BSA. This medium was then freshly replaced and the cells incubated for another 24 hours with PDGF. At the end of the incubation, the cell monolayers were washed with ice-cold PBS, scraped into PBS and pelleted by centrifugation. The cell pellets were then lysed and equal amounts of protein (50 μg) subjected to electrophoresis and immunoblotting to detect VEGF using a specific antibody from Santa Cruz Biotechnology. Detection was by a chemiluminiscent technique.
FIG. 9 illustrates the effect of epidermal growth factor (EGF) and the 12-lipoxygenase product 12-HETE on VEGF protein expression in the MCF-7 breast cancer cell line MCF-7. MCF-7 cells were treated with EGF and 12-HETE for 24 hours and VEGF protein identified as described in the legend to FIG. 8.

[2] = system: beta sub-unit of the human insulin receptor; test: Insulin receptor phosphorylation in rat-1-fibroblasts containing the human insulin receptor; type: cell-based; conditions: 12-HETE 10^−7M
Protocol: 7. Baicalein, a selective 12-LO inhibitor, can prevent glucose-induced insulin resistance. To perform these studies, applicants cultured rat-1-fibroblasts that have been engineered to contain the human insulin receptor for ten days in high glucose (25 mM). For the last 24 hours, the cells were cultured with 10^−6M baicalein. The marked bands represent the phosphorylated beta sub-unit of the human insulin receptor (FIG. 23). As the band becomes lighter, it represents reduced insulin action. Lane 1 represents the insulin receptor phosphorylation in normal glucose (5.5 mM) vs the reduced insulin action in lane 5 (25 mM glucose).

[3] = system: smooth muscle cell migration; conditions: cited from earlier work
RINm5F cells = test: DNA synthesis (3H-thymidine incorporation) in RINm5F cells; type: cell-based, rat; conditions: 24 hours, 12-HETE 10^−9M
Protocol: FIG. 11 illustrates the effects of 12-LO products on DNA synthesis in the insulin-producing rat beta cell line, RINm5F. DNA synthesis was studied using ^3H-thymidine incorporation (luCi/ml) added for the last six hours (18-24 hours of experiment). The LO products were added to the cells in complete growth media for 24 hours.
Applicants have discovered that direct addition of the 12-LO products 12-S-HETE or 12-HPETE directly decreases cellular growth as reflected by decreased ^3H thymidine incorporation or DNA synthesis in the rat pure beta cell line RIN-M5F.

MO binding to HAEC = test: Monocyte binding to human aortic endothelial cells; type: cell-based; conditions: HAEC in 5.5 mM glucose, 10^−10M; control 66±6
Protocol: The rate of atherosclerosis is accelerated in humans with diabetes mellitus (DM). Applicants recently published evidence that high glucose (HG) exposure of human aortic endothelial cells (HAEC) selectively increases monocyte (MO) but not neutrophil binding (56). HG exposure to EC can increase arachidonic acid (AA) release and lipoxygenase (LO) production formation. In the current study, applicants evaluated the role of 12- and 15-LO products in MO binding to HAEC. Culture of HAEC in HG (25 mM) for two passages increased MO binding compared to cells maintained in 5.5 mM glucose (239±30 cells/field HG vs 111±7, p<0.01). Phenidone (10^−6M), an inhibitor of the 12-LO pathway (50 percent inhibition of HG-induced binding, p<0.05). […] 12(S)-HETE added to HAEC cultured in 5.5 mM glucose increased MO binding (66±6 cells/field control vs 114±4 12-HETE 10^−10M, p<0.01). […] In summary, (1) elevated glucose increases MO binding to HAEC and this effect can be reduced by blockade of the LO pathway; (2) 12 but not 15-LO products, can increase MO binding.

[4] = system: VEGF in vascular smooth muscle cells (VSMC); test: VEGF protein, mRNA and secretion in VSMC (Western, Northern, EIA); type: cell-based, Porcine and human
Protocol: In addition to the work reflected in FIGS. 8-10, it has now been discovered that AII, 12-HETE and hyperglycemia (HG) increase VEGF production in vascular smooth muscle cells (VSMC). Porcine and human VSMC were cultured for at least two passages under normal glucose (NG, 5.5 mM) or under HG conditions. VEGF protein expression was determined by Western blotting and VEGF mRNA by Northern blots. HG alone increased the level of VEGF mRNA (2.8-fold) and protein (3.2-fold). […] In addition, HG increased the secretion of VEGF into the medium as measured by a specific EIA (56.2±4 ng/ml NG vs 73±5 HG, p<0.02).

JNK = JNK activity in CHO-AT1a cells; type: cell-based, Chinese hamster
Protocol: The plasmid pGEX-cJun 1/79 (Dept. Pharmacol. UCSD, La Jolla) is a GST-cJun (1-79) expression vector encoding amino acids (1-79) of cJun. The GST fusion protein expression vector was transformed into E. Coli. Protein was induced with 0.1 mM IPTG and purified by affinity binding to glutathione-agarose beads. Unstimulated or stimulated cells were lysed into WCEB (25 mM HEPES, pH 7.7, 03.M Nacl, 15 mM MgCl2, 02.mM EDTA and 0.1% triton X-100). About 50 μg protein extract was incubated with GST-cJun+GSH agarose overnight at 4° C. Phosphorylation was carried out at 30° C. for 20 minutes in the presence of 20 mM HEPES, pH 7.5, 20 mM b-glycerophosphate, 10 mM p-nitrophenolphosphate, 10 mM MgCl2, 10 mM DDT, 50 μg Na3VO4, 20 μM ATP (cold) and about 0.5 μl of new gamma ^32P-ATP. After boiling with electrophoresis sample buffer, the supernatants were analyzed on 12% SDS-PAGE. JNK activity was also measured by immunoprecipitation method using an anti-JNK antibody (Parmingen Co., San Diego) and then activities were measured using 2 μg of GST-cJun (1-79) as substrate as described in Cell, 81:1147-1157 (1995).
as §1

VEGF protein in AIHSMC = test: VEGF protein expression in immortalized human aortic smooth muscle cell line (AIHSMC); type: cell-based; conditions: five hours
Protocol: FIG. 10 illustrates the effect of a 12-lipoxygenase product 12-HPETE on VEGF protein (42 kD) expression in an immortalized human aortic smooth muscle cell line (AIHSMC). The cells were serum starved for 24 hours and then placed in fresh medium along with 12-HPETE. Cells were incubated for five hours and VEGF protein was then identified in cell lysed as described in the legend to FIG. 8.

leukocyte 12-LO = leukocyte 12-LO (Sus scrofa, UniProt P16469); conditions: reference 55; cited from earlier work
[5] = system: 12-LO product formation in PVSMC; test: 12-HETE in PVSMC cultured in glucosamine (RIA); type: cell-based, porcine; conditions: glucosamine 7.5 mM
Protocol: Porcine vascular smooth muscles cells (PVSMC) were cultured in the presence of glucosamine (7.5 mM) for 24 hours. New media was then added with glucosamine (7.5 mM) for 25 minutes. The cells and media above the cells were collected and 12-HETE was measured using RIA. A very large increase in 12-HETE release into the media in cells cultured in glucosamine compared to those in normal glucose (6.48±1.2 pg/ml 12-HETE release in normal glucose vs. 20.6±3.6 pg/ml released in glucosamine n=4) was observed. Furthermore, cell associated 12-HETE was higher in glucosamine treated cells (735.9±67 pg/cell incubate normal glucose vs. 1225±112 pg in glucosamine).

PVSMC = PVSMC DNA synthesis (3H thymidine incorporation); type: cell-based, porcine; conditions: 2.5 ng/ml
Protocol: (§2) The cells were cultured in DME (normal glucose) and treated for 24 hours±cytokines in medium containing 0.2% BSA and 0.4% serum. Intracellular 12-LO enzyme activity was measured by HPLC, leukocyte-type 12-LO protein expression by immunoblotting and 12-LO mRNA by a specific reverse transcriptase polymerase chain reaction (RT-PCR). […] Treatment with these cytokines (0.5-5 ng/ml) also led to an increase (1.4-2.5-fold) in 12-LO protein expression 72 kD). In addition, all three cytokines (2.5 ng/ml) could induce a significant increase in PVSMC DNA synthesis (1.280.08, 1.67±0.11 and 1.3±0.07 fold increase in ^3H thymidine incorporation with IL-1, -4, and -8 respectively, p<0.01).

[6] = system: leukocyte-type 12-LO in PVSMC; test: 12-LO activity, mRNA and protein in PVSMC; type: cell-based, porcine; conditions: 24 hours
Protocol: FIG. 14A illustrates the dose-dependent effect of the cytokine interleukin-1β on 12-LO mRNA expression in porcine aortic smooth muscle cells (PVSMC). Confluent PVSMC growth in normal glucose medium was serum depleted for 24 hours by placing in medium+0.2% BSA+0.4% FCS. This medium was then freshly replaced along with IL-1β and the cells incubated for a further 24 hours. At the end of the incubation, total RNA was extracted from the cells using RNA-STAT. This RNA was the subjected to reverse-transcriptase polymerase chain reaction (RT-PCR) to detect and quantitate leukocyte-type 12-LO mRNA (333 bp PCR product, upper panel) using our well established techniques. The expression of GAPDH mRNA 284 bp, lower panel) was used as an internal control for PCR and for quantitation.
FIG. 14B illustrates the effect of the cytokine IL-4 on 12-LO mRNA expression in PVSMC. The ells were treated for 24 hours with IL-4 and 12-LO mRNA quantitated as described in the legend to FIG. 14A. It is clearly seen that IL-4 also increases 12-LO mRNA expression similar to IL-1β.
FIG. 14C illustrates the effect of the cytokine IL-8 on 12-LO mRNA expression in PVSMC. The cells were treated for 24 hours with IL-8 and 12-LO mRNA quantitated as described under legend 14A.
as §2

leukocyte 12-LO, sequence (P16469 whole entry): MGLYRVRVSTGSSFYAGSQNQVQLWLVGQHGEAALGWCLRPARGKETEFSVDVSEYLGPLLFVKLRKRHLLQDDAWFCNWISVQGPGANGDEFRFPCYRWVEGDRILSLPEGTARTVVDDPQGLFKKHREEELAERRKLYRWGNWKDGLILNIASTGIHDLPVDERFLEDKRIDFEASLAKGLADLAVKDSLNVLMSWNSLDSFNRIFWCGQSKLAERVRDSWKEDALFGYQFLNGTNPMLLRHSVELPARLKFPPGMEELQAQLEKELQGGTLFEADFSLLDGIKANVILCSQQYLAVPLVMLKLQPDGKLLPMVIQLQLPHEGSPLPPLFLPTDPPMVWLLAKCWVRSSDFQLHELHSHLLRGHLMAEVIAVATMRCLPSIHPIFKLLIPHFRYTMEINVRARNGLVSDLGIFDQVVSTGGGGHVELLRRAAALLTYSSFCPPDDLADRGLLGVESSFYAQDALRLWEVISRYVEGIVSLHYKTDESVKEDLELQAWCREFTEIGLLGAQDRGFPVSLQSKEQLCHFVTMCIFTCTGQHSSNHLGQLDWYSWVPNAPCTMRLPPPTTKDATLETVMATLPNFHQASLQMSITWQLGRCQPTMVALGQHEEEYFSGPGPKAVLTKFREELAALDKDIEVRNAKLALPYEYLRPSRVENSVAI

basal insulin receptor phosphorylation [2]: did not directly alter
insulin-induced receptor phosphorylation of the beta subunit [2]: markedly reduced
Molecule: CCCCC/C=C\C[C@@H](O)/C=C/C=C\C/C=C\CCCC(=O)O [12-HETE, 12-Hydroxyeicosatetraenoic Acid]
JAK activity (JAK1 and JAK2): increased JAK activity
stimulation of ERK activity (ERK): biphasic stimulation
VEGF protein expression ([1]; MCF-7, 24 hours): more potent than EGF
VEGF protein expression ([1]; MCF-7 and MDA MB, 12-HETE 10^−7M and 10^−6M): increases VEGF protein expression
lowest concentration leading to smooth muscle cell migration [3]: 10^−12 M
3H-thymidine incorporation (DNA synthesis) (RINm5F cells): reduced
MO binding (MO binding to HAEC): 114±4 cells/field
increase in VEGF secretion (EIA) [4]: 1.4 fold
expression of VEGF protein and mRNA ([4]; 12-HETE 10^−8M and 10^−7M, 4 hours, NG and HG): increased the expression
stimulation of JNK activity, first peak (JNK; 12-HETE 10^−7M, 30 minutes): 2-3 fold
stimulation of JNK activity, second peak (JNK; 12-HETE 10^−7M, 3 hours): 2.5-5 fold
lowest concentration stimulating JNK activity (JNK; FIG. 29): 10^−9 M

Molecule: CCCCC/C=C\CC(/C=C/C=C\C/C=C\CCCC(=O)O)OO (stereo not shown) [12-HPETE, 12-Hydroperoxyeicosatetraenoic Acid]
VEGF protein (42 kD) expression (VEGF protein in AIHSMC): causes an increase
3H-thymidine incorporation (DNA synthesis) (RINm5F cells): reduced

Molecule: C=C[C@H](O)C#CC#CC/C=C\CCCCCCC [Panaxynol]
inhibition of leukocyte 12-LO (leukocyte 12-LO): relatively selective inhibitor

Molecule: N[C@H]1C(O)O[C@H](CO)[C@@H](O)[C@@H]1O (stereo partly shown) [glucosamine]
12-HETE release into the media ([5]; normal glucose 6.48±1.2): 20.6 ± 3.6 pg/mL
cell associated 12-HETE ([5]; normal glucose 735.9±67 pg/cell incubate): 1225 ± 112 pg

Molecule: IL-8: cytokine IL-8
increase in 3H thymidine incorporation (PVSMC): 1.3±0.07 fold
increase in 12-HETE HPLC peak (12-LO enzyme activity) ([6]; 2.5 ng/ml): 36%
12-LO mRNA expression in PVSMC ([6]; FIG. 14): dose-dependent increase

From US6893829B2, “Human leukocyte 12-lipoxygenase and its role in the pathogenesis of disease states” (City of Hope, priority 1992, dated 2005)
